Assay results published in the NIST ThermoML archive (doi:10.1016/j.tca.2018.01.023).
Where “and” joins values, the source holds several entries; their conditions need not be identical. Identical values can stand only once.

Experiment: molar heat capacity at constant pressure
Conditions: 101.33 kPa, Crystal, Small sample (50 mg) DSC

[Ca+2].[O]=[Mo](=[O])([O-])[O-] [calcium molybdate(VI)]
Conditions	molar heat capacity at constant pressure
495.4 K	135.5 J/K/mol
495.8 K	135.8 J/K/mol
496.4 K	135.6 J/K/mol
496.8 K	135.8 J/K/mol
497.4 K	135.6 J/K/mol
497.8 K	135.9 J/K/mol
498.4 K	135.7 J/K/mol
498.8 K	136 J/K/mol
499.4 K	135.8 J/K/mol
499.8 K	136 J/K/mol
500 K	136 J/K/mol
500.4 K	135.9 J/K/mol
500.8 K	136.1 J/K/mol
501.4 K	136 J/K/mol
501.8 K	136.1 J/K/mol
502.4 K	136.1 J/K/mol
502.8 K	136.1 J/K/mol
503.4 K	136.2 J/K/mol
503.8 K	136.2 J/K/mol
504.4 K	136.2 J/K/mol
504.8 K	136.2 J/K/mol
505.4 K	136.3 J/K/mol
505.8 K	136.3 J/K/mol
506.4 K	136.3 J/K/mol
506.8 K	136.4 J/K/mol
507.4 K	136.4 J/K/mol
507.8 K	136.5 J/K/mol
508.4 K	136.5 J/K/mol
508.8 K	136.5 J/K/mol
509.4 K	136.6 J/K/mol
509.8 K	136.5 J/K/mol
510 K	136.6 J/K/mol
510.4 K	136.6 J/K/mol
510.8 K	136.6 J/K/mol
511.4 K	136.7 J/K/mol
511.8 K	136.7 J/K/mol
512.4 K	136.8 J/K/mol
512.8 K	136.8 J/K/mol
513.4 K	136.9 J/K/mol
513.8 K	136.9 J/K/mol
514.4 K	137 J/K/mol
514.8 K	136.9 J/K/mol
515.4 K	137.1 J/K/mol
515.8 K	137 J/K/mol
516.4 K	137.1 J/K/mol
516.8 K	137 J/K/mol
517.4 K	137.2 J/K/mol
517.8 K	137.1 J/K/mol
518.4 K	137.3 J/K/mol
518.8 K	137.2 J/K/mol
519.4 K	137.3 J/K/mol
519.8 K	137.3 J/K/mol
520 K	137.3 J/K/mol
520.4 K	137.4 J/K/mol
520.8 K	137.3 J/K/mol
521.4 K	137.5 J/K/mol
521.8 K	137.4 J/K/mol
522.4 K	137.6 J/K/mol
522.8 K	137.5 J/K/mol
523.4 K	137.7 J/K/mol
523.8 K	137.6 J/K/mol
524.4 K	137.7 J/K/mol
524.8 K	137.6 J/K/mol
525.4 K	137.8 J/K/mol
525.8 K	137.7 J/K/mol
526.4 K	137.8 J/K/mol
526.8 K	137.7 J/K/mol
527.4 K	137.9 J/K/mol
527.8 K	137.7 J/K/mol
528.4 K	137.9 J/K/mol
528.9 K	137.8 J/K/mol
529.4 K	138 J/K/mol
529.9 K	137.8 J/K/mol
530 K	137.9 J/K/mol
530.4 K	138.1 J/K/mol
530.9 K	137.8 J/K/mol
531.4 K	138.1 J/K/mol
531.9 K	137.8 J/K/mol
532.4 K	138.2 J/K/mol
532.9 K	137.9 J/K/mol
533.4 K	138.2 J/K/mol
533.9 K	138 J/K/mol
534.4 K	138.3 J/K/mol
534.9 K	138.1 J/K/mol
535.4 K	138.3 J/K/mol
535.9 K	138.2 J/K/mol
536.4 K	138.4 J/K/mol
536.9 K	138.3 J/K/mol
537.4 K	138.5 J/K/mol
537.9 K	138.4 J/K/mol
538.4 K	138.5 J/K/mol
538.9 K	138.5 J/K/mol
539.4 K	138.6 J/K/mol
539.9 K	138.7 J/K/mol
540 K	138.4 J/K/mol
540.4 K	138.7 J/K/mol
540.9 K	138.8 J/K/mol
541.4 K	138.7 J/K/mol
541.9 K	138.8 J/K/mol
542.4 K	138.8 J/K/mol
542.9 K	138.8 J/K/mol
543.4 K	138.8 J/K/mol
543.9 K	138.9 J/K/mol
544.4 K	138.9 J/K/mol
544.9 K	138.9 J/K/mol
545.4 K	138.9 J/K/mol
545.9 K	138.9 J/K/mol
546.4 K	139 J/K/mol
546.9 K	138.9 J/K/mol
547.4 K	139 J/K/mol
547.9 K	139 J/K/mol
548.4 K	139 J/K/mol
548.9 K	139.1 J/K/mol
549.4 K	139 J/K/mol
549.9 K	139.2 J/K/mol
550 K	139 J/K/mol
550.4 K	139.1 J/K/mol
550.9 K	139.3 J/K/mol
551.4 K	139.1 J/K/mol
551.9 K	139.5 J/K/mol
552.4 K	139.2 J/K/mol
552.9 K	139.6 J/K/mol
553.4 K	139.2 J/K/mol
553.9 K	139.7 J/K/mol
554.4 K	139.3 J/K/mol
554.9 K	139.8 J/K/mol
555.4 K	139.3 J/K/mol
555.9 K	139.8 J/K/mol
556.4 K	139.4 J/K/mol
556.9 K	139.8 J/K/mol
557.4 K	139.5 J/K/mol
557.9 K	139.8 J/K/mol
558.4 K	139.5 J/K/mol
558.9 K	139.8 J/K/mol
559.4 K	139.6 J/K/mol
559.9 K	139.9 J/K/mol
560 K	139.5 J/K/mol
560.4 K	139.7 J/K/mol
560.9 K	139.9 J/K/mol
561.4 K	139.7 J/K/mol
561.9 K	140 J/K/mol
562.4 K	139.8 J/K/mol
562.9 K	140.2 J/K/mol
563.4 K	139.8 J/K/mol
563.9 K	140.4 J/K/mol
564.4 K	139.9 J/K/mol
564.9 K	140.6 J/K/mol
565.4 K	139.9 J/K/mol
565.9 K	140.7 J/K/mol
566.4 K	139.9 J/K/mol
566.9 K	140.8 J/K/mol
567.4 K	139.9 J/K/mol
568 K	140.8 J/K/mol
568.4 K	140 J/K/mol
569 K	140.9 J/K/mol
569.4 K	140.1 J/K/mol
570 K	140 J/K/mol and 141 J/K/mol
570.4 K	140.2 J/K/mol
571 K	141 J/K/mol
571.4 K	140.2 J/K/mol
572 K	141 J/K/mol
572.4 K	140.3 J/K/mol
573 K	141 J/K/mol
573.4 K	140.3 J/K/mol
574 K	141.1 J/K/mol
574.4 K	140.4 J/K/mol
575 K	141.2 J/K/mol
575.4 K	140.4 J/K/mol
576 K	141.2 J/K/mol
576.4 K	140.5 J/K/mol
577 K	141.3 J/K/mol
577.4 K	140.6 J/K/mol
578 K	141.3 J/K/mol
578.4 K	140.7 J/K/mol
579 K	141.2 J/K/mol
579.4 K	140.7 J/K/mol
580 K	140.5 J/K/mol and 141.2 J/K/mol
580.4 K	140.8 J/K/mol
581 K	141.2 J/K/mol
581.4 K	140.8 J/K/mol
582 K	141.3 J/K/mol
582.4 K	140.8 J/K/mol
583 K	141.3 J/K/mol
583.4 K	140.9 J/K/mol
584 K	141.4 J/K/mol
584.4 K	140.9 J/K/mol
585 K	141.6 J/K/mol
585.4 K	141 J/K/mol
586 K	141.7 J/K/mol
586.4 K	141 J/K/mol
587 K	141.8 J/K/mol
587.4 K	141 J/K/mol
588 K	141.9 J/K/mol
588.4 K	141 J/K/mol
589 K	142 J/K/mol
589.4 K	141 J/K/mol
590 K	141 J/K/mol and 142.1 J/K/mol
590.4 K	141.1 J/K/mol
591 K	142.1 J/K/mol
591.4 K	141.2 J/K/mol
592 K	142 J/K/mol
592.4 K	141.2 J/K/mol
593 K	142 J/K/mol
593.4 K	141.2 J/K/mol
594 K	142 J/K/mol
594.4 K	141.2 J/K/mol
595 K	142 J/K/mol
595.4 K	141.2 J/K/mol
596 K	142.1 J/K/mol
